Reference: the supplement of paper PMC4862054

What was measured:
Settings in all cases: incubation time: 72 h
MFM-223 [1] = assay: normalised response (% of control), CellTiter-Glo; higher = more viable cells (100 = DMSO, 0 = benzethonium chloride kill control)
How it was run: (§1)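 Every value is a normalised signal taken at one concentration of a dilution series. Compound was placed in 384-well plates at 5 concentrations in 10-fold steps over a compound-specific 10,000-fold range, and 20 µl of breast cancer cell suspension was seeded onto it. After 72 h, CellTox Green fluorescence (485/520 nm) was measured first and CellTiter-Glo luminescence second, following 10 min at room temperature. Each plate was scaled to 0.1 % DMSO (100) and a positive kill control (0).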

MDA-MB-453 [2] = assay: as above
How it was run: as §1

CAL-85-1 [3] = assay: as above
How it was run: as §1

MDA-MB-436 [4] = assay: as above
How it was run: as §1

HCC1143 [5] = assay: as above
How it was run: as §1

CAL-120 [6] = assay: as above
How it was run: as §1

CAL-148 [7] = assay: as above
How it was run: as §1

HCC1937 [8] = assay: as above
How it was run: as §1

MDA-MB-468 = assay: as above
How it was run: as §1

SK-BR-3 = assay: as above
How it was run: as §1

DU-4475 [9] = assay: as above
How it was run: as §1

MCF-10A [10] = assay: as above
How it was run: as §1

Hs578T [11] = assay: as above
How it was run: as §1

CAL-51 [12] = assay: as above
How it was run: as §1

BT-474 [13] = assay: as above
How it was run: as §1

HCC1599 [14] = assay: as above
How it was run: as §1

BT-549 [15] = assay: as above
How it was run: as §1

MDA-MB-231 [16] = assay: as above
How it was run: as §1

HDQ-P1 = assay: as above
How it was run: as §1

MFM-223 [17] = assay: normalised response (% of control), CellTox Green; higher = less cell death (100 = DMSO, 0 = benzethonium chloride kill control)
How it was run: as §1

MDA-MB-453 [18] = assay: as above
How it was run: as §1

CAL-85-1 [19] = assay: as above
How it was run: as §1

MDA-MB-436 [20] = assay: as above
How it was run: as §1

HCC1143 [21] = assay: as above
How it was run: as §1

CAL-120 [22] = assay: as above
How it was run: as §1

CAL-148 [23] = assay: as above
How it was run: as §1

HCC1937 [24] = assay: as above
How it was run: as §1

DU-4475 [25] = assay: as above
How it was run: as §1

MCF-10A [26] = assay: as above
How it was run: as §1

Hs578T [27] = assay: as above
How it was run: as §1

CAL-51 [28] = assay: as above
How it was run: as §1

BT-474 [29] = assay: as above
How it was run: as §1

HCC1599 [30] = assay: as above
How it was run: as §1

BT-549 [31] = assay: as above
How it was run: as §1

MDA-MB-231 [32] = assay: as above
How it was run: as §1

SMILES	normalised response (MFM-223 [1]) [%]	normalised response (MDA-MB-453 [2]) [%]	normalised response (CAL-85-1 [3]) [%]	normalised response (MDA-MB-436 [4]) [%]	normalised response (HCC1143 [5]) [%]	normalised response (CAL-120 [6]) [%]	normalised response (CAL-148 [7]) [%]	normalised response (HCC1937 [8]) [%]	normalised response (MDA-MB-468) [%]	normalised response (SK-BR-3) [%]	normalised response (DU-4475 [9]) [%]	normalised response (MCF-10A [10]) [%]	normalised response (Hs578T [11]) [%]	normalised response (CAL-51 [12]) [%]	normalised response (BT-474 [13]) [%]	normalised response (HCC1599 [14]) [%]	normalised response (BT-549 [15]) [%]	normalised response (MDA-MB-231 [16]) [%]	normalised response (HDQ-P1) [%]	normalised response (MFM-223 [17]) [%]	normalised response (MDA-MB-453 [18]) [%]	normalised response (CAL-85-1 [19]) [%]	normalised response (MDA-MB-436 [20]) [%]	normalised response (HCC1143 [21]) [%]	normalised response (CAL-120 [22]) [%]	normalised response (CAL-148 [23]) [%]	normalised response (HCC1937 [24]) [%]	normalised response (DU-4475 [25]) [%]	normalised response (MCF-10A [26]) [%]	normalised response (Hs578T [27]) [%]	normalised response (CAL-51 [28]) [%]	normalised response (BT-474 [29]) [%]	normalised response (HCC1599 [30]) [%]	normalised response (BT-549 [31]) [%]	normalised response (MDA-MB-231 [32]) [%]
C[C@]12CC[C@@H]3c4ccc(O)cc4C[C@@H](CCCCCCCCC[S+]([O-])CCCC(F)(F)C(F)(F)F)[C@H]3[C@@H]1CC[C@@H]2O (some centres not stated) [Fulvestrant] (100 nM)	103	109	99.1	108	99.3	100	97.4	105	104	107	104	109	106	114	104	110	108	104	104	90.7	87.5	108	108	111	100	100	106	101	105	103	113	102	101	106	114
Oc1nc(-c2ccc(C(F)(F)F)cc2)nc2c1CSCC2 [XAV-939] (10 nM)	98.9	106	98.7	99.9	99.8	93.8	101	101	92.9	117	104	105	102	78.4	102	108	98.6	95.4	97.8																
NC(=O)Nc1cc(-c2cccc(F)c2)sc1C(=O)N[C@H]1CCCNC1 [AZD7762] (0.1 nM)	109	99.9	98.4	97.5	98.4	105	102	94.3	100	105	108	98.2	99.2	77	105	89.9	105	105	106																
O=C(CCCCCCC(=O)Nc1ccc([C@H]2O[C@@H](CSc3nc(-c4ccccc4)c(-c4ccccc4)o3)C[C@@H](c3ccc(CO)cc3)O2)cc1)NO [Tubacin] (1 nM)	96.8	103	92.4	82.1	98.9	96.1	97.6	93.3	91.5	101	100	92.8	100	119	94.2	93.5	100	97.5	94.6																
N.N.[Cl][Pt][Cl] [Cisplatin] (0.1 nM)	96.9	98.9	97.2	98.2	95.2	102	85.7	101	97.3	98.6	92	103	102	115	101	110	106	99.7	101																
NC(=O)Nc1cc(-c2cccc(F)c2)sc1C(=O)N[C@H]1CCCNC1 [AZD7762] (1 nM)	102	94.1	98.5	106	103	99.7	102	98.7	102	105	104	103	101	95.7	114	95.7	95.6	103	91.2																
CC(=O)Nc1ccc(C(=O)Nc2ccccc2N)cc1 [Tacedinaline] (0.1 nM)	97.1	104	104	101	92.9	92.1	93.2	98.4	105	105	100	98.4	96.7	113	102	100	99.5	98.9	94.2																
COc1cc2ncnc(Nc3ccc(F)c(Cl)c3)c2cc1NC(=O)/C=C/CN1CCCCC1 [Dacomitinib] (0.1 nM)	102	99.9	97.5	102	107	94	109	104	101	99.6	95.3	101	98.5	71.8	99	93.7	102	102	99.8																
Cc1ccc(C(=O)Nc2ccc(CN3CCN(C)CC3)c(C(F)(F)F)c2)cc1C#Cc1cnc2cccnn12 [Ponatinib] (1 nM)	99.5	98.2	108	108	97.1	106	99.5	98.4	107	99.4	100	103	97.3	101	104	103	106	97.2	104																
O=C1CCC(N2C(=O)c3ccccc3C2=O)C(=O)N1 (configuration not stated) [Thalidomide] (10 nM)	97.5	96.3	100	95.8	97.3	94.2	92.6	95.3	91.9	98.9	97.2	100	100	65.4	94	102	99.7	98.4	96.1																
CCC1(c2ccc(N)cc2)CCC(=O)NC1=O (configuration not stated) [Aminoglutethimide] (10 nM)	101	90.2	105	95.4	108	100	100	99.3	101	98.7	104	103	97.3	151	105	97	95.2	104	97.5																
O=P1(NCCCl)OCCCN1CCCl (configuration not stated) [Ifosfamide] (10 nM)	89.1	87.7	100	94	98.1	93.2	86.1	95.8	91.6	94.9	92.5	96.1	102	118	96.8	89.3	95.9	101	98																
CO[C@H]1/C=C\C=C(/C)C(=O)NC2=CC(=O)C(NCCN(C)C)=C(C[C@@H](C)C[C@H](OC)[C@H](O)[C@@H](C)/C=C(\C)[C@@H]1OC(N)=O)C2=O [Alvespimycin] (1 nM)	105	113	97.8	104	97.5	100	112	91.6	107	105	105	106	101	112	120	102	95.6	102	102																
N#CCNC(=O)c1ccc(-c2ccnc(Nc3ccc(N4CCOCC4)cc3)n2)cc1 [Momelotinib] (10 nM)	94.2	89.5	97.1	101	100	95.1	94.9	96.8	92.8	115	97.2	103	104	80.9	94.2	89.8	99.6	97.4	103																
